According to ChEMBL document CHEMBL1909046, “DrugMatrix in vitro pharmacology data”:

Legend:
Melanocortin receptor 5 = Melanocortin receptor 5 (Homo sapiens, UniProt P33032); assay type: cell membranes, HEK293, Membrane; conditions: hek293; note: in other assays of this panel Not Active means under 50% inhibition at 10 µM
Cytochrome P450 2A6 = target: T1, Cytochrome P450 2A6 (Homo sapiens, UniProt P11509); conditions: bti-tn-5b1-4; note: in other assays of this panel Not Active means under 50% inhibition at 10 µM
T1 sequence (P11509 whole entry): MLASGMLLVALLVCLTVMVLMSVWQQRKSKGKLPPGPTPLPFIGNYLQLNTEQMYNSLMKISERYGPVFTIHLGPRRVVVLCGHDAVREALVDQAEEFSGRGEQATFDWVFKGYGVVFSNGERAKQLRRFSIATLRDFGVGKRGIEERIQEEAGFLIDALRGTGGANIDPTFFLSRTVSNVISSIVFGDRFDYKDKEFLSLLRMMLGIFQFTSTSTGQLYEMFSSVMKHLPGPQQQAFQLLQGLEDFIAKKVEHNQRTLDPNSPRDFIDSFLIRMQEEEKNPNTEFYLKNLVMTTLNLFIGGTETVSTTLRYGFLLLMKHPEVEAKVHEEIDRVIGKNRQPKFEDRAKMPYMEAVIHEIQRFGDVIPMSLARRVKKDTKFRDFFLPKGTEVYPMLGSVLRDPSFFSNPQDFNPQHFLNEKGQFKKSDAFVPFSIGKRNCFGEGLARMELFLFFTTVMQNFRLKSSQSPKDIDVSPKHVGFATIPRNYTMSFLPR

Estrogen receptor beta = Estrogen receptor beta (Homo sapiens, UniProt Q92731); conditions: sf9; note: in other assays of this panel Not Active means under 50% inhibition at 10 µM
[1] = DRUGMATRIX: Phorbol Ester radioligand binding (ligand: [3H] PDBu); assay type: cell membranes, Mus musculus, ICR, Brain, Membrane; conditions: Not Active = under 50% inhibition at 10 µM
[2] = target: Platelet-activating factor receptor (Homo sapiens, UniProt P25105); assay type: tissue-based; note: in other assays of this panel Not Active means under 50% inhibition at 10 µM
[3] = target: Delta-type opioid receptor (Homo sapiens, UniProt P41143); assay type: cell membranes, HEK293, Membrane; conditions: hek293; note: in other assays of this panel Not Active means under 50% inhibition at 10 µM
Mu-type opioid receptor = Mu-type opioid receptor (Homo sapiens, UniProt P35372); experiment: DRUGMATRIX: Opiate mu (OP3, MOP) radioligand binding (ligand: [3H] Diprenorphine); assay type: cell membranes, CHO-K1, Membrane; conditions: cho-k1; Not Active = under 50% inhibition at 10 µM
[4] = target: T2, Neuropeptide Y receptor type 1 (Homo sapiens, UniProt P25929); assay type: cell membranes, Membrane; conditions: sk-n-mc; note: in other assays of this panel Not Active means under 50% inhibition at 10 µM
T2 sequence (P25929 whole entry): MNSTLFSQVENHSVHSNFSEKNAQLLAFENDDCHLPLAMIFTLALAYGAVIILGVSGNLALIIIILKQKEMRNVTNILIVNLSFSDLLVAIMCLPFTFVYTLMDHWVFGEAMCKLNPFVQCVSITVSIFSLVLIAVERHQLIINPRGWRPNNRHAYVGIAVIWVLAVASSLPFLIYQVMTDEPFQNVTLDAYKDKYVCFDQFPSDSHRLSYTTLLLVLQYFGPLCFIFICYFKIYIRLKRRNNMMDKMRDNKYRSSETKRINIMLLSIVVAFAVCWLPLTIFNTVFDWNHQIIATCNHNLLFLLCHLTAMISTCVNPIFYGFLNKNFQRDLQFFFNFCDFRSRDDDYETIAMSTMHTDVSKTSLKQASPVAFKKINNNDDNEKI

Sequence of Mu-type opioid receptor (P35372 whole entry): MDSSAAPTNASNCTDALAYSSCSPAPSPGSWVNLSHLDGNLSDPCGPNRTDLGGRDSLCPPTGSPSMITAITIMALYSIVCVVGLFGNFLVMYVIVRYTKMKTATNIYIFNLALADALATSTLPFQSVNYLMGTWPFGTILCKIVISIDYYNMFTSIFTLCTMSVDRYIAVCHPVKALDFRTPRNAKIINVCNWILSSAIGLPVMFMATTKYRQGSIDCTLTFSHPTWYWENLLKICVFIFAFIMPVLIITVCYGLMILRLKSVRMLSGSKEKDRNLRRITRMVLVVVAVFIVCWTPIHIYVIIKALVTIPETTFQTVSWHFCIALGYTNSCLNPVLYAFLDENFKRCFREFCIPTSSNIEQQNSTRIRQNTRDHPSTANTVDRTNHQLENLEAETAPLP
Sequence of Delta-type opioid receptor (P41143 whole entry): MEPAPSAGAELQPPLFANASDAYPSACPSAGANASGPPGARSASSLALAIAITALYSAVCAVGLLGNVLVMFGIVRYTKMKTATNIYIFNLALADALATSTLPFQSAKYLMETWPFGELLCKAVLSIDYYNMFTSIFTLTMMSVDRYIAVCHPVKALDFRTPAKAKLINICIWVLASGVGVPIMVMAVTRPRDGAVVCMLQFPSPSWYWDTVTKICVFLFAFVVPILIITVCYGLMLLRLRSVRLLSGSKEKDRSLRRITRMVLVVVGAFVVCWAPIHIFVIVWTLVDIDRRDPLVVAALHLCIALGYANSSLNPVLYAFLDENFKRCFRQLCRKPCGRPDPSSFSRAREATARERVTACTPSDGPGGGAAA
Sequence of Melanocortin receptor 5 (P33032 whole entry): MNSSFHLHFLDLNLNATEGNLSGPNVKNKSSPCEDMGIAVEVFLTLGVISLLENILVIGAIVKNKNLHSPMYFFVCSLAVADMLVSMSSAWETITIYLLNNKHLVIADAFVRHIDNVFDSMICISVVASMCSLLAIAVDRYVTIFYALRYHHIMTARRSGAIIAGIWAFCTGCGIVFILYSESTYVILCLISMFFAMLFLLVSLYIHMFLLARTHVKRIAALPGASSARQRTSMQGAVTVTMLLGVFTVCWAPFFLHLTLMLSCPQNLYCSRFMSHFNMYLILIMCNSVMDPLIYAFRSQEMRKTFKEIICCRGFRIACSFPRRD
Sequence of Estrogen receptor beta (Q92731 whole entry): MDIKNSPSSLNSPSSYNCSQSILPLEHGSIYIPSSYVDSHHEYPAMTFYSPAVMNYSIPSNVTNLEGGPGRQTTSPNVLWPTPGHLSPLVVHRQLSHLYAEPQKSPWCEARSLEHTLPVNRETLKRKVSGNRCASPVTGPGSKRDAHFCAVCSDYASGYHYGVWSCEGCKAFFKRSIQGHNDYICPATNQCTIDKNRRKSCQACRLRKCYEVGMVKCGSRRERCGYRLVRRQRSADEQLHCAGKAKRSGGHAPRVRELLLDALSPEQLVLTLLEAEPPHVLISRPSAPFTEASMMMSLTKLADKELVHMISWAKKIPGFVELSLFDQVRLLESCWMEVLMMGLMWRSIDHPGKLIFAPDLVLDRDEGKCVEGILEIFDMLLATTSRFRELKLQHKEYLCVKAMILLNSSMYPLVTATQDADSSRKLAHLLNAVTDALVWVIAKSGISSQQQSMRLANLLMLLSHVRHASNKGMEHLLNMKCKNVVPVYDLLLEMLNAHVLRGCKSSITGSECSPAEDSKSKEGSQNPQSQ
Sequence of Platelet-activating factor receptor (P25105 whole entry): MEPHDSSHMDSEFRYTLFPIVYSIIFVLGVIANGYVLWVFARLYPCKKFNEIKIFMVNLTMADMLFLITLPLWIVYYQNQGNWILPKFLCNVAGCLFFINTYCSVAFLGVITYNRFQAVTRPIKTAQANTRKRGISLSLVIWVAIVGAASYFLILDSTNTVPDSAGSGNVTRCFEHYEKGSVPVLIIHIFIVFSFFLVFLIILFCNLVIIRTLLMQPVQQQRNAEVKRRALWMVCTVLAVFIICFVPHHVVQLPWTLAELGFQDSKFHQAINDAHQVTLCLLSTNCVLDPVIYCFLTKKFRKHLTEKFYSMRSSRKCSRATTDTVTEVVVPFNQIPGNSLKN

CC(C)CN(C[C@@H](O)[C@H](Cc1ccccc1)NC(=O)O[C@H]1CCOC1)S(=O)(=O)c1ccc(N)cc1
Not Active: IC50 (Melanocortin receptor 5) | IC50 (Cytochrome P450 2A6) | Ki (Cytochrome P450 2A6) | IC50 (Estrogen receptor beta) | IC50 [1] | Ki [1] | IC50 [2] | IC50 [3] | IC50 (Mu-type opioid receptor) | IC50 [4]

c1ccc(Nc2ccc(Nc3ccccc3)cc2)cc1
Not Active: IC50 (Melanocortin receptor 5) | IC50 (Cytochrome P450 2A6) | Ki (Cytochrome P450 2A6) | IC50 (Estrogen receptor beta) | IC50 [1] | Ki [1] | IC50 [2] | IC50 [3] | IC50 (Mu-type opioid receptor) | IC50 [4]

COc1cc2c3cc1Oc1cc(ccc1O)C[C@@H]1c4c(cc(OC)c(O)c4Oc4ccc(cc4)C[C@@H]3N(C)CC2)CC[N+]1(C)C.[Cl-]
Not Active: IC50 (Melanocortin receptor 5) | IC50 (Cytochrome P450 2A6) | Ki (Cytochrome P450 2A6) | IC50 (Estrogen receptor beta) | IC50 [1] | Ki [1] | IC50 [2] | IC50 [3] | IC50 (Mu-type opioid receptor) | IC50 [4]

NC(=O)N1c2ccccc2CCc2ccccc21
Not Active: IC50 (Melanocortin receptor 5) | IC50 (Cytochrome P450 2A6) | Ki (Cytochrome P450 2A6) | IC50 (Estrogen receptor beta) | IC50 [1] | Ki [1] | IC50 [2] | IC50 [3] | IC50 (Mu-type opioid receptor) | IC50 [4]

O=C1CC[C@@H](N2C(=O)c3ccccc3C2=O)C(=O)N1
Not Active: IC50 (Melanocortin receptor 5) | IC50 (Cytochrome P450 2A6) | Ki (Cytochrome P450 2A6) | IC50 (Estrogen receptor beta) | IC50 [1] | Ki [1] | IC50 [2] | IC50 [3] | IC50 (Mu-type opioid receptor) | IC50 [4]

Cc1onc(O)c1CC(N)C(=O)O (racemic) [(R,S)-AMPA]
Not Active: IC50 (Melanocortin receptor 5) | IC50 (Cytochrome P450 2A6) | Ki (Cytochrome P450 2A6) | IC50 (Estrogen receptor beta) | IC50 [1] | Ki [1] | IC50 [2] | IC50 [3] | IC50 (Mu-type opioid receptor) | IC50 [4]

CC[C@@]1(O)C[C@H](O[C@H]2C[C@H](N(C)C)[C@H](O[C@H]3C[C@H](O)[C@H](O[C@H]4CCC(=O)[C@H](C)O4)[C@H](C)O3)[C@H](C)O2)c2c(cc3c(c2O)C(=O)c2c(O)cccc2C3=O)[C@H]1C(=O)OC [ACLARUBICIN]
Not Active: IC50 (Melanocortin receptor 5) | IC50 (Cytochrome P450 2A6) | Ki (Cytochrome P450 2A6) | IC50 (Estrogen receptor beta) | IC50 [1] | Ki [1] | IC50 [2] | IC50 [3] | IC50 (Mu-type opioid receptor) | IC50 [4]

Cc1c(C)c2c(c(C)c1O)CC[C@@](C)(CCC[C@H](C)CCC[C@H](C)CCCC(C)C)O2 [ALPHA-TOCOPHEROL]
Not Active: IC50 (Melanocortin receptor 5) | IC50 (Cytochrome P450 2A6) | Ki (Cytochrome P450 2A6) | IC50 (Estrogen receptor beta) | IC50 [1] | Ki [1] | IC50 [2] | IC50 [3] | IC50 (Mu-type opioid receptor) | IC50 [4]

CN(C)c1nc(N(C)C)nc(N(C)C)n1 [ALTRETAMINE]
Not Active: IC50 (Melanocortin receptor 5) | IC50 (Estrogen receptor beta) | IC50 [1] | Ki [1] | IC50 [2] | IC50 [3] | IC50 (Mu-type opioid receptor) | IC50 [4]

Nc1c(Br)cc(Br)cc1CN[C@H]1CC[C@H](O)CC1 [AMBROXOL]
Not Active: IC50 (Melanocortin receptor 5) | IC50 (Estrogen receptor beta) | IC50 [1] | Ki [1] | IC50 [2] | IC50 [3] | IC50 (Mu-type opioid receptor) | IC50 [4]

CCOC(=O)C1=C(COCCN)NC(C)=C(C(=O)OC)C1c1ccccc1Cl (configuration not stated) [AMLODIPINE]
Not Active: IC50 (Melanocortin receptor 5) | IC50 (Cytochrome P450 2A6) | Ki (Cytochrome P450 2A6) | IC50 (Estrogen receptor beta) | IC50 [1] | Ki [1] | IC50 [2] | IC50 [3] | IC50 (Mu-type opioid receptor) | IC50 [4]

CN(C)C(=O)Oc1cc(OC(=O)N(C)C)cc(C(O)CNC(C)(C)C)c1 (configuration not stated) [BAMBUTEROL]
Not Active: IC50 (Melanocortin receptor 5) | IC50 (Cytochrome P450 2A6) | Ki (Cytochrome P450 2A6) | IC50 (Estrogen receptor beta) | IC50 [1] | Ki [1] | IC50 [2] | IC50 [3] | IC50 (Mu-type opioid receptor) | IC50 [4]

c1ccc2c(c1)c1cccc3ccc4cccc2c4c31 [BENZO[E]PYRENE]
Not Active: IC50 (Melanocortin receptor 5) | IC50 (Cytochrome P450 2A6) | Ki (Cytochrome P450 2A6) | IC50 (Estrogen receptor beta) | IC50 [1] | Ki [1] | IC50 [2] | IC50 [3] | IC50 (Mu-type opioid receptor) | IC50 [4]

CC(C)C(Br)C(=O)NC(N)=O (configuration not stated) [BROMISOVALUM]
Not Active: IC50 (Melanocortin receptor 5) | IC50 (Cytochrome P450 2A6) | Ki (Cytochrome P450 2A6) | IC50 (Estrogen receptor beta) | IC50 [1] | Ki [1] | IC50 [2] | IC50 [3] | IC50 (Mu-type opioid receptor) | IC50 [4]

CCCC1O[C@@H]2C[C@H]3[C@@H]4CCC5=CC(=O)C=C[C@]5(C)[C@H]4[C@@H](O)C[C@]3(C)[C@]2(C(=O)CO)O1 (some centres not stated) [BUDESONIDE]
Not Active: IC50 (Melanocortin receptor 5) | IC50 (Cytochrome P450 2A6) | Ki (Cytochrome P450 2A6) | IC50 (Estrogen receptor beta) | IC50 [1] | Ki [1] | IC50 [2] | IC50 [3] | IC50 (Mu-type opioid receptor) | IC50 [4]

CC(NC(C)(C)C)C(=O)c1cccc(Cl)c1 (configuration not stated) [BUPROPION]
Not Active: IC50 (Melanocortin receptor 5) | IC50 (Cytochrome P450 2A6) | Ki (Cytochrome P450 2A6) | IC50 (Estrogen receptor beta) | IC50 [1] | Ki [1] | IC50 [2] | IC50 [3] | IC50 (Mu-type opioid receptor) | IC50 [4]

CN(Cc1ccc(C(C)(C)C)cc1)Cc1cccc2ccccc12 [BUTENAFINE]
Not Active: IC50 (Melanocortin receptor 5) | IC50 (Cytochrome P450 2A6) | Ki (Cytochrome P450 2A6) | IC50 (Estrogen receptor beta) | IC50 [1] | Ki [1] | IC50 [2] | IC50 [3] | IC50 (Mu-type opioid receptor) | IC50 [4]

C[C@H](CS)C(=O)N1CCC[C@H]1C(=O)O [CAPTOPRIL]
Not Active: IC50 (Melanocortin receptor 5) | IC50 (Cytochrome P450 2A6) | Ki (Cytochrome P450 2A6) | IC50 (Estrogen receptor beta) | IC50 [1] | Ki [1] | IC50 [2] | IC50 [3] | IC50 (Mu-type opioid receptor) | IC50 [4]

Cc1cc(C2CCCCC2)n(O)c(=O)c1 [CICLOPIROX]
Not Active: IC50 (Melanocortin receptor 5) | IC50 (Cytochrome P450 2A6) | Ki (Cytochrome P450 2A6) | IC50 (Estrogen receptor beta) | IC50 [1] | Ki [1] | IC50 [2] | IC50 [3] | IC50 (Mu-type opioid receptor) | IC50 [4]

Cc1cc(C(C#N)c2ccc(Cl)cc2)c(Cl)cc1NC(=O)c1cc(I)cc(I)c1O (configuration not stated) [CLOSANTEL]
Not Active: IC50 (Melanocortin receptor 5) | IC50 (Cytochrome P450 2A6) | Ki (Cytochrome P450 2A6) | IC50 (Estrogen receptor beta) | IC50 [1] | Ki [1] | IC50 [2] | IC50 [3] | IC50 (Mu-type opioid receptor) | IC50 [4]

Cc1onc(-c2ccccc2Cl)c1C(=O)N[C@@H]1C(=O)N2[C@@H]1SC(C)(C)[C@@H]2C(=O)O [CLOXACILLIN]
Not Active: IC50 (Melanocortin receptor 5) | IC50 (Cytochrome P450 2A6) | Ki (Cytochrome P450 2A6) | IC50 (Estrogen receptor beta) | IC50 [1] | Ki [1] | IC50 [2] | IC50 [3] | IC50 (Mu-type opioid receptor) | IC50 [4]

CC1(C)S[C@@H]2[C@H](NC(=O)Cc3ccccc3)C(=O)N2[C@H]1C(=O)O [PENICILLIN G]
Not Active: IC50 (Melanocortin receptor 5) | IC50 (Estrogen receptor beta) | IC50 [1] | Ki [1] | IC50 [2] | IC50 [3] | IC50 (Mu-type opioid receptor) | IC50 [4]

LEAD (II) ACETATE
Not Active: IC50 (Melanocortin receptor 5) | Ki (Melanocortin receptor 5) | IC50 (Cytochrome P450 2A6) | Ki (Cytochrome P450 2A6) | IC50 (Estrogen receptor beta) | Ki (Estrogen receptor beta) | IC50 [1] | Ki [1] | IC50 [2] | Ki [2] | IC50 [3] | Ki [3] | IC50 [4] | Ki [4]

LIPOPOLYSACCHARIDE E. COLI O55:B5
Not Active: IC50 (Melanocortin receptor 5) | Ki (Melanocortin receptor 5) | IC50 (Cytochrome P450 2A6) | Ki (Cytochrome P450 2A6) | IC50 (Estrogen receptor beta) | Ki (Estrogen receptor beta) | IC50 [1] | Ki [1] | IC50 [2] | Ki [2] | IC50 [3] | Ki [3] | IC50 [4] | Ki [4]
